For assay [1], the system named is α-glucosidase. The assay can be described thus: In vitro α-glucosidase inhibition assay. The class given is biochemical, yeast. Conditions: for anti-α-glucosidase activity in words: in comparison to acarbose or compound 14b; for folds more active than acarbose against α-glucosidase: versus acarbose.
In assay [2] the test system is α-glucosidase. The assay can be described thus: Kinetic study. The format is biochemical, yeast. The note with it: Lineweaver–Burk plots.

As for `O=C(Cn1cc(CNC(=O)c2cc3c([nH]c4ccccc43)c(-c3ccc(Cl)cc3)n2)nn1)Nc1cccc(Cl)c1` [Compound 14n, 1-(4-chlorophenyl)-N-((1-(2-((3-chlorophenyl)amino)-2-oxoethyl)-1 H-1,2,3-triazol-4-yl)methyl)-9 H-pyrido[3,4-b]indole-3-carboxamide], in the assay with α-glucosidase [1], the “anti-α-glucosidase activity in words” value is “good”.
As for `Cc1ccccc1NC(=O)Cn1cc(CNC(=O)c2cc3c([nH]c4ccccc43)c(-c3ccc(Cl)cc3)n2)nn1` [Compound 14k, 1-(4-chlorophenyl)-N-((1-(2-oxo-2-(o-tolylamino)ethyl)-1 H-1,2,3-triazol-4-yl)methyl)-9 H-pyrido[3,4-b]indole-3-carboxamide], the “inhibitory activity diminished relative to compound 14 L” value in the assay on α-glucosidase [1] (versus compound 14 L) stood at 3 folds.
With `COc1ccc(-c2nc(C(=O)NCc3cn(CC(=O)Nc4cccc(Cl)c4)nn3)cc3c2[nH]c2ccccc23)cc1` [Compound 14i, N-((1-(2-((3-chlorophenyl)amino)-2-oxoethyl)-1 H-1,2,3-triazol-4-yl)methyl)-1-(4-methoxyphenyl)-9 H-pyrido[3,4-b]indole-3-carboxamide], in the assay with α-glucosidase [1], the “anti-α-glucosidase activity in words” value is on record as “significant inhibitor”.
`COc1ccc(NC(=O)Cn2cc(CNC(=O)c3cc4c([nH]c5ccccc54)c(-c4ccccc4)n3)nn2)c([N+](=O)[O-])c1` [Compound 14e, N-((1-(2-((4-methoxy-2-nitrophenyl)amino)-2-oxoethyl)-1 H-1,2,3-triazol-4-yl)methyl)-1-phenyl-9 H-pyrido[3,4-b]indole-3-carboxamide]: the “anti-α-glucosidase activity in words” value in the assay with α-glucosidase [1] is listed as “moderate”.
As to `O=C(Cn1cc(CNC(=O)c2cc3c([nH]c4ccccc43)c(-c3ccc(Cl)cc3)n2)nn1)Nc1ccccc1F` [14 m, 1-(4-chlorophenyl)-N-((1-(2-((2-fluorophenyl)amino)-2-oxoethyl)-1 H-1,2,3-triazol-4-yl)methyl)-9 H-pyrido[3,4-b]indole-3-carboxamide], the “folds more active than acarbose against α-glucosidase” value in the assay with α-glucosidase [1] is listed as “around 5 folds”.
For `Cc1ccccc1NC(=O)Cn1cc(CNC(=O)c2cc3c([nH]c4ccccc43)c(-c3ccccc3)n2)nn1` [Compound 14b, N-((1-(2-oxo-2-(o-tolylamino)ethyl)-1 H-1,2,3-triazol-4-yl)methyl)-1-phenyl-9 H-pyrido[3,4-b]indole-3-carboxamide], the “anti-α-glucosidase activity in words” value with α-glucosidase [1] is on record as “significant”. Further, in the assay with α-glucosidase [2], the “effect of increasing inhibitor concentration on Km and Vmax” value was “decrease in Km and Vmax”; the “type of α-glucosidase inhibition” value is on record as “uncompetitive”.
Turning to `O=C(Cn1cc(CNC(=O)c2cc3c([nH]c4ccccc43)c(-c3ccc(Cl)cc3)n2)nn1)Nc1ccccc1` [Compound 14j, 1-(4-chlorophenyl)-N-((1-(2-oxo-2-(phenylamino)ethyl)-1 H-1,2,3-triazol-4-yl)methyl)-9 H-pyrido[3,4-b]indole-3-carboxamide], the “folds more active than acarbose against α-glucosidase” value in the assay on α-glucosidase [1] is recorded as “around 5 folds”.
With `Cc1cc([N+](=O)[O-])ccc1NC(=O)Cn1cc(CNC(=O)c2cc3c([nH]c4ccccc43)c(-c3ccccc3)n2)nn1` [Compound 14c, N-((1-(2-((2-methyl-4-nitrophenyl)amino)-2-oxoethyl)-1 H-1,2,3-triazol-4-yl)methyl)-1-phenyl-9 H-pyrido[3,4-b]indole-3-carboxamide], the “decrease of anti-α-glucosidase activity relative to compound 14b” value with α-glucosidase [1] (versus compound 14b) came out at 10 folds.
In the case of `Cc1cc([N+](=O)[O-])ccc1NC(=O)Cn1cc(CNC(=O)c2cc3c([nH]c4ccccc43)c(-c3ccc(Cl)cc3)n2)nn1` [14 L, 1-(4-chlorophenyl)-N-((1-(2-((2-methyl-4-nitrophenyl)amino)-2-oxoethyl)-1 H-1,2,3-triazol-4-yl)methyl)-9 H-pyrido[3,4-b]indole-3-carboxamide], the “anti-α-glucosidase activity in words” value with α-glucosidase [1] is on record as “good”.

Values taken from paper PMC12092823 (Scientific Reports, 2025).
